Series [1] deals with DSS mouse model of ulcerative colitis. The series is described as follows: DSS mouse model of ulcerative colitis: Disease Activity Index, plasma and colon cytokines, colon histopathology. The following applies: for colon IL-15 level increased by DSS / colon KC level increased by DSS / colon RANTES level increased by DSS / layer to which the infiltration extended (extent of infiltration, colon histopathology) / amount of crypt damage (colon histopathology) / degree of inflammatory infiltrate (colon histopathology): colon collected day 7; for improvement (reduction) in the Disease Activity Index (DAI): mice given 2.5% DSS in drinking water for 6 days, NTX 1170 100 mg/kg QD PO, infliximab 5 mg/kg QD IP, tofacitinib 5 mg/kg BID PO. It counts as in vivo, mice. Here is the method: (§1) Body weights, stool consistency and the presence of blood in the stool were measured over the 6 days and comprised the Disease Activity Index (DAI). On day 7 the study was terminated, and the colon and plasma were collected for cytokine measurements, histology evaluation and for pharmacokinetic (PK) analysis.

The nature of series [2]: Pharmacokinetic (PK) analysis of terminal plasma and colon samples in DSS mice. The following applies: 100 mg/kg QD PO. In kind it is in vivo. Here is the method:
as §1

Where [3] appears, read: plasma collected day 7, 2.5% DSS 6 days.

These results are taken from patent US20250120960A1, “Compositions and Methods for Treatment of Inflammatory Bowel Disease” (Nocion Therapeutics, Inc., priority 2022, published 2025).

Some results are limits rather than exact numbers.

Take `C[C@@H]1CCN(C(=O)CC#N)C[C@@H]1N(C)c1ncnc2[nH]ccc12` [tofacitinib]: in series [1] (2.5% DSS 6 days), the “colon IL-15 level increased by DSS” value is given as “neither tofacitinib nor infliximab significantly reduced”; the “colon KC level increased by DSS” value is “neither tofacitinib nor infliximab significantly reduced”; the “colon RANTES level increased by DSS” value is given as “neither tofacitinib nor infliximab significantly reduced”; the “layer to which the infiltration extended (extent of infiltration, colon histopathology)” value is given as “reduced”. In series [1], the “improvement (reduction) in the Disease Activity Index (DAI)” value turned out to be 38%. Also, in series [1] (setting [3]), the “plasma G-CSF level upregulated by DSS” value is given as “significantly reduced”, the “plasma MIG level upregulated by DSS” value is recorded as “significantly reduced”, the “plasma Mip-1β level upregulated by DSS” value is on record as “significantly reduced” and the “plasma TNF-α level upregulated by DSS” value is on record as “significantly reduced”.

Turning to infliximab, in series [1] (2.5% DSS 6 days), the “amount of crypt damage (colon histopathology)” value is “no significant effect”, the “colon IL-15 level increased by DSS” value is “neither tofacitinib nor infliximab significantly reduced”, the “colon KC level increased by DSS” value was “neither tofacitinib nor infliximab significantly reduced” and the “colon RANTES level increased by DSS” value is given as “neither tofacitinib nor infliximab significantly reduced”. In addition, in series [1] (2.5% DSS 6 days), the “degree of inflammatory infiltrate (colon histopathology)” value is given as “no significant effect” and the “layer to which the infiltration extended (extent of infiltration, colon histopathology)” value is listed as “no significant effect”. For the same compound, in series [1] (setting [3]), the “plasma G-CSF level upregulated by DSS” value is recorded as “reduced”, the “plasma Mip-1β level upregulated by DSS” value is “reduced” and the “plasma TNF-α level upregulated by DSS” value was “reduced”.

Consider `Cc1cccc(C)c1NC(=O)C[N+]1(Cc2ccccc2)CCCCC1.[Br-]` [NTX-1170], for which, in series [1] (2.5% DSS 6 days), the “amount of crypt damage (colon histopathology)” value was “significantly reduced”, the “colon IL-15 level increased by DSS” value is listed as “significantly reduced”, the “colon KC level increased by DSS” value is “significantly reduced” and the “colon RANTES level increased by DSS” value was “significantly reduced”. Also, in series [1] (2.5% DSS 6 days), the “degree of inflammatory infiltrate (colon histopathology)” value was “significantly reduced” and the “layer to which the infiltration extended (extent of infiltration, colon histopathology)” value is given as “significantly reduced”. Moreover, in series [1], the “improvement (reduction) in the Disease Activity Index (DAI)” value is recorded as 60%. Further, in series [1] (setting [3]), the “plasma G-CSF level upregulated by DSS” value is recorded as “significantly reduced”, the “plasma IP-10 level upregulated by DSS” value was “significantly reduced”, the “plasma MIG level upregulated by DSS” value is on record as “significantly reduced” and the “plasma Mip-1β level upregulated by DSS” value is “significantly reduced”. Also, the “plasma TNF-α level upregulated by DSS” value in series [1] (setting [3]) was “significantly reduced”. In addition, in series [2] (mouse, colon and plasma, terminal samples, read-out: colon/plasma ratio), the Kp is > 3500. Moreover, in series [2] (terminal colon sample), the “level of compound in the colon” value was “high levels”. In series [2] (terminal plasma sample), the “level of compound in the plasma” value is recorded as “very low levels”.
